Laboratory results published in patent publication US12077503B2, “Substituted cyclic amides and their use as herbicides” (FMC CORPORATION, priority 2015, dated 2024).

Columns and labels:
Assay type in all cases: in vivo
[1] = test system: pigweed (Amaranthus retroflexus); assay: Test A preemergence; conditions: Amaranthus retroflexus, pre-emergence, 240 h, 0 to 100 scale where 0 is no effect and 100 is complete control, read-out: Pigweed plant response rating
[2] = test system: giant foxtail (Setaria faberii); assay: Test A preemergence; conditions: Setaria faberi, pre-emergence, 240 h, 0 to 100 scale where 0 is no effect and 100 is complete control, read-out: Foxtail, Giant plant response rating
Procedure, shortened: (§1)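 Visual injury scores from 0, no effect, to 100, complete control, were assigned versus untreated controls roughly 10 d after treatment in the greenhouse. Test chemicals, formulated with surfactant in a non-phytotoxic solvent, were applied to planted seeds as a preemergence soil spray or postemergence to one- to two-leaf plants 2 to 10 cm tall, in loam–sand soil.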

[3] = test system: barnyardgrass (Echinochloa crus-galli); assay: Test A preemergence; conditions: Echinochloa crus-galli, pre-emergence, 240 h, 0 to 100 scale where 0 is no effect and 100 is complete control, read-out: Barnyardgrass plant response rating
Procedure, shortened: as §1

[4] = test system: ryegrass, Italian (Italian ryegrass, Lolium multiflorum); assay: Test A preemergence; conditions: Lolium multiflorum, pre-emergence, 240 h, 0 to 100 scale where 0 is no effect and 100 is complete control, read-out: Ryegrass, Italian plant response rating
Procedure, shortened: as §1

[5] = test system: ragweed (common ragweed, Ambrosia elatior); assay: Test A preemergence; conditions: Ambrosia artemisiifolia, pre-emergence, 240 h, 0 to 100 scale where 0 is no effect and 100 is complete control, read-out: Ragweed plant response rating
Procedure, shortened: as §1

Kochia (Kochia scoparia) [6] = assay: Test A preemergence; conditions: Bassia scoparia, pre-emergence, 240 h, 0 to 100 scale where 0 is no effect and 100 is complete control, read-out: Kochia plant response rating
Procedure, shortened: as §1

[7] = test system: wheat (Triticum aestivum); assay: Test A postemergence; conditions: Triticum aestivum, post-emergence, 240 h
Procedure, shortened: as §1

[8] = test system: pigweed (Amaranthus retroflexus); assay: Test A postemergence; conditions: Amaranthus retroflexus, post-emergence, 240 h
Procedure, shortened: as §1

[9] = test system: giant foxtail (Setaria faberii); assay: Test A postemergence; conditions: Setaria faberi, post-emergence, 240 h
Procedure, shortened: as §1

[10] = test system: barnyardgrass (Echinochloa crus-galli); assay: Test A postemergence; conditions: Echinochloa crus-galli, post-emergence, 240 h
Procedure, shortened: as §1

[11] = test system: Galium (catchweed bedstraw, Galium aparine); assay: Test A postemergence; conditions: Galium, post-emergence, 240 h
Procedure, shortened: as §1

corn (Zea mays) = assay: Test A postemergence; conditions: Zea mays, post-emergence, 240 h
Procedure, shortened: as §1

[12] = test system: ryegrass, Italian (Italian ryegrass, Lolium multiflorum); assay: Test A postemergence; conditions: Lolium multiflorum, post-emergence, 240 h
Procedure, shortened: as §1

[13] = test system: ragweed (common ragweed, Ambrosia elatior); assay: Test A postemergence; conditions: Ambrosia artemisiifolia, post-emergence, 240 h
Procedure, shortened: as §1

Kochia (Kochia scoparia) [14] = assay: Test A postemergence; conditions: Bassia scoparia, post-emergence, 240 h
Procedure, shortened: as §1

[15] = test system: blackgrass (Alopecurus myosuroides); assay: Test A postemergence; conditions: Alopecurus myosuroides, post-emergence, 240 h
Procedure, shortened: as §1

[16] = test system: sedge, umbrella (small-flower umbrella sedge, Cyperus difformis); assay: Test B flooded paddy test; conditions: Cyperus difformis, 250 g ai/ha, Flood; 0 to 100 scale where 0 is no effect and 100 is complete control; read-out: Sedge, Umbrella plant response rating
Procedure, shortened: (§2)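 Response scored visually against untreated controls, 0 = no effect and 100 = complete control, 13–15 d after treatment in the greenhouse. Compounds added to paddy water held 3 cm above soil surface. Treatment given at 2-leaf stage.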

rice (Oryra sativa) = assay: Test B flooded paddy test; conditions: Oryza sativa, 250 g ai/ha, Flood; 0 to 100 scale where 0 is no effect and 100 is complete control; read-out: Rice plant response rating
Procedure, shortened: as §2

[17] = test system: barnyardgrass (Echinochloa crus-galli); assay: Test B flooded paddy test; conditions: Echinochloa crus-galli, 250 g ai/ha, Flood; 0 to 100 scale where 0 is no effect and 100 is complete control; read-out: Barnyardgrass plant response rating
Procedure, shortened: as §2

[18] = test system: ducksalad (Heteranthera limosa); assay: Test B flooded paddy test; conditions: Heteranthera limosa, 250 g ai/ha, Flood; 0 to 100 scale where 0 is no effect and 100 is complete control; read-out: Ducksalad plant response rating
Procedure, shortened: as §2

[19] = 125 g ai/ha, preemergence, approx. 10 d

## CN1CC(c2cccc(C(F)(F)F)c2)C(C(=O)Nc2ccccc2C(C)(C)O)C1=O (stereo not drawn) [Compound 1146]
[1]; 31 g ai/ha, Preemergence
  pest or weed control at 31 g/ha: 0%
[1]; [19]
  pest or weed control at 125 g/ha: 0%
[2]; 31 g ai/ha, Preemergence
  pest or weed control at 31 g/ha: 20%
[2]; [19]
  pest or weed control at 125 g/ha: 80%
[3]; 31 g ai/ha, Preemergence
  pest or weed control at 31 g/ha: 50%
[3]; [19]
  pest or weed control at 125 g/ha: 70%
[4]; 31 g ai/ha, Preemergence
  pest or weed control at 31 g/ha: 0%
[4]; [19]
  pest or weed control at 125 g/ha: 30%
[5]; 31 g ai/ha, Preemergence
  pest or weed control at 31 g/ha: 0%
[5]; [19]
  pest or weed control at 125 g/ha: 0%
Kochia (Kochia scoparia) [6]; 31 g ai/ha, Preemergence
  pest or weed control at 31 g/ha: 0%
Kochia (Kochia scoparia) [6]; [19]
  pest or weed control at 125 g/ha: 0%
[7]; 125 g ai/ha, postemergence, visual injury vs untreated controls after approx. 10 d, 0 = no effect, 100 = complete control, read-out: Wheat plant response rating (0 to 100 scale)
  plant injury at 125 g/ha: 0%
[7]; Postemergence, 31 g ai/ha, visual injury after approx. 10 d, 0 to 100 scale, 0 no effect, 100 complete control, read-out: Plant response rating, Wheat
  plant injury at 31 g/ha: 0%
[8]; 125 g ai/ha, postemergence, visual injury vs untreated controls after approx. 10 d, 0 = no effect, 100 = complete control, read-out: Pigweed plant response rating (0 to 100 scale)
  pest or weed control at 125 g/ha: 0%
[8]; Postemergence, 31 g ai/ha, visual injury after approx. 10 d, 0 to 100 scale, 0 no effect, 100 complete control, read-out: Plant response rating, Pigweed
  pest or weed control at 31 g/ha: 0%
[9]; 125 g ai/ha, postemergence, visual injury on 0 to 100 scale (0 no effect, 100 complete control), approx. 10 d, read-out: Foxtail, Giant plant response rating
  pest or weed control at 125 g/ha: 20%
[9]; Postemergence, 31 g ai/ha, visual injury after approx. 10 d, 0 to 100 scale, 0 no effect, 100 complete control, read-out: Plant response rating, Foxtail, Giant
  pest or weed control at 31 g/ha: 0%
[10]; 125 g ai/ha, postemergence, visual injury on 0 to 100 scale (0 no effect, 100 complete control), approx. 10 d, read-out: Barnyardgrass plant response rating
  pest or weed control at 125 g/ha: 40%
[10]; Postemergence, 31 g ai/ha, visual injury after approx. 10 d, 0 to 100 scale, 0 no effect, 100 complete control, read-out: Plant response rating, Barnyardgrass
  pest or weed control at 31 g/ha: 0%
[11]; 125 g ai/ha, postemergence, visual injury on 0 to 100 scale (0 no effect, 100 complete control), approx. 10 d, read-out: Galium plant response rating
  pest or weed control at 125 g/ha: 0%
[11]; Postemergence, 31 g ai/ha, visual injury after approx. 10 d, 0 to 100 scale, 0 no effect, 100 complete control, read-out: Plant response rating, Galium
  pest or weed control at 31 g/ha: 0%
Corn (Zea mays); 125 g ai/ha, postemergence, visual injury on 0 to 100 scale (0 no effect, 100 complete control), approx. 10 d, read-out: Corn plant response rating
  plant injury at 125 g/ha: 30%
Corn (Zea mays); Postemergence, 31 g ai/ha, visual injury after approx. 10 d, 0 to 100 scale, 0 no effect, 100 complete control
  Corn plant response rating (crop injury, 0 = no effect, 100 = complete kill) at 31 g/ha: 0%
[12]; 125 g ai/ha, postemergence, visual injury vs untreated controls after approx. 10 d, 0 = no effect, 100 = complete control, read-out: Ryegrass, Italian plant response rating (0 to 100 scale)
  pest or weed control at 125 g/ha: 0%
[12]; Postemergence, 31 g ai/ha, visual injury after approx. 10 d, 0 to 100 scale, 0 no effect, 100 complete control, read-out: Plant response rating, Ryegrass, Italian
  pest or weed control at 31 g/ha: 0%
[13]; 125 g ai/ha, postemergence, visual injury vs untreated controls after approx. 10 d, 0 = no effect, 100 = complete control, read-out: Ragweed plant response rating (0 to 100 scale)
  pest or weed control at 125 g/ha: 0%
[13]; Postemergence, 31 g ai/ha, visual injury after approx. 10 d, 0 to 100 scale, 0 no effect, 100 complete control, read-out: Plant response rating, Ragweed
  pest or weed control at 31 g/ha: 0%
Kochia (Kochia scoparia) [14]; 125 g ai/ha, postemergence, visual injury on 0 to 100 scale (0 no effect, 100 complete control), approx. 10 d, read-out: Kochia plant response rating
  pest or weed control at 125 g/ha: 0%
Kochia (Kochia scoparia) [14]; Postemergence, 31 g ai/ha, visual injury after approx. 10 d, 0 to 100 scale, 0 no effect, 100 complete control, read-out: Plant response rating, Kochia
  pest or weed control at 31 g/ha: 0%
[15]; 125 g ai/ha, postemergence, visual injury on 0 to 100 scale (0 no effect, 100 complete control), approx. 10 d, read-out: Blackgrass plant response rating
  pest or weed control at 125 g/ha: 0%
[15]; Postemergence, 31 g ai/ha, visual injury after approx. 10 d, 0 to 100 scale, 0 no effect, 100 complete control, read-out: Plant response rating, Blackgrass
  pest or weed control at 31 g/ha: 0%
[16]
  pest or weed control at 250 g/ha: 50%
Rice (Oryra sativa)
  pest or weed control at 250 g/ha: 0%
[17]
  pest or weed control at 250 g/ha: 45%
[18]
  pest or weed control at 250 g/ha: 0%
